Key:
Format in all cases: in vivo
[1] = test system: redroot pigweed (Amaranthus retroflexus, AMARE); test: Pre-emerge test, greenhouse herbicide activity screening; conditions: pre-emerge, 14 days after application
In short: (§1)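 Sandy loam pots; pre-emerge: sown 1 d pre-spray, surface-watered after, then bottom-watered. Post-emerge: sown 8–21 d before, 2–3 leaf stage, + 0.25% v/v NIS, bottom-watered. Acetone, 187 l/ha track spray, 15–1000 g ai/ha. 0–100 injury score, day 14.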

[2] = test system: barnyardgrass (Echinochloa crus-galli, ECHCG); test: as above; conditions: pre-emerge, 14 days after application
In short: (§2)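 Applied at 15–1000 g ai/ha from acetone in 187 l/ha spray volume. Post-emergence applications included 0.25% v/v non-ionic surfactant and reached plants sown 8–21 days before. Pre-emergence applications were incorporated by surface watering. Efficacy or crop damage was rated on a 0–100 scale after 14 days.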

[3] = test system: green foxtail (Setaria viridis, SETVI); test: as above; conditions: pre-emerge, 14 days after application
In short: as §2

[4] = test system: ivyleaf morningglory (Ipomoea hederacea, IPOHE); test: as above; conditions: pre-emerge, 14 days after application
In short: as §2

[5] = test system: johnsongrass (Sorghum halepense, SORHA); test: as above; conditions: pre-emerge, 14 days after application
In short: as §2

[6] = test system: lambsquarters (Chenopodium album, CHEAL); test: as above; conditions: pre-emerge, 14 days after application
In short: as §2

[7] = test system: large crabgrass (Digitaria sanguinalis, DIGSA); test: as above; conditions: pre-emerge, 14 days after application
In short: as §2

[8] = test system: sicklepod (Cassia obtusifolia, CASOB); test: as above; conditions: pre-emerge, 14 days after application
In short: as §2

[9] = test system: velvetleaf (Abutilon theophrasti, ABUTH); test: as above; conditions: pre-emerge, 14 days after application
In short: as §2

[10] = test system: field corn (Zea mays L., var. Dekalb 535, CORN); test: Pre-emerge test, crop safety; conditions: pre-emerge, 14 days after application; for phytotoxicity rating CORN (crop damage): scale 0-100; for phytotoxicity rating CORN: rating scale 0-100
In short: as §1

[11] = test system: upland rice (Oryza sp., var. Tebonnet, RICE); test: Pre-emerge test, crop safety; conditions: pre-emerge, 14 days after application; for phytotoxicity rating RICE (crop damage): scale 0-100; for phytotoxicity rating RICE: rating scale 0-100
In short: as §1

[12] = test system: barnyardgrass (Echinochloa crus-galli, ECHCG); test: Post-emerge test, greenhouse herbicide activity screening; conditions: post-emerge, 14 days after application, rating scale 0-100
In short: (§3)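 Compounds in acetone were track-sprayed at 187 l/ha, 15–1000 g ai/ha, onto sandy loam pots. Pre-emerge seeds were sown one day before spraying, with surface watering afterwards. Post-emerge plants were at the 2–3 leaf stage and sprayed with 0.25% v/v non-ionic surfactant. Injury was rated 0–100 at 14 days.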

[13] = test system: green foxtail (Setaria viridis, SETVI); test: as above; conditions: post-emerge, 14 days after application, rating scale 0-100
In short: as §3

[14] = test system: ivyleaf morningglory (Ipomoea hederacea, IPOHE); test: as above; conditions: post-emerge, 14 days after application, rating scale 0-100
In short: as §3

[15] = test system: johnsongrass (Sorghum halepense, SORHA); test: as above; conditions: post-emerge, 14 days after application, rating scale 0-100
In short: as §3

[16] = test system: lambsquarters (Chenopodium album, CHEAL); test: as above; conditions: post-emerge, 14 days after application, rating scale 0-100
In short: as §3

[17] = test system: large crabgrass (Digitaria sanguinalis, DIGSA); test: as above; conditions: post-emerge, 14 days after application, rating scale 0-100
In short: as §3

[18] = test system: redroot pigweed (Amaranthus retroflexus, AMARE); test: as above; conditions: post-emerge, 14 days after application
In short: as §3

[19] = test system: sicklepod (Cassia obtusifolia, CASOB); test: as above; conditions: post-emerge, 14 days after application, rating scale 0-100
In short: as §3

[20] = test system: velvetleaf (Abutilon theophrasti, ABUTH); test: as above; conditions: post-emerge, 14 days after application, rating scale 0-100
In short: as §3

[21] = test system: field corn (Zea mays L., var. Dekalb 535, CORN); test: Post-emerge test, crop safety; conditions: post-emerge, 14 days after application, rating scale 0-100
In short: as §2

[22] = test system: upland rice (Oryza sp., var. Tebonnet, RICE); test: Post-emerge test, crop safety; conditions: post-emerge, 14 days after application, rating scale 0-100
In short: as §2

[23] = 250 g ai/ha, rating scale 0-100

## COc1c(Cl)cc(F)c(-n2c(=O)cc(C(F)(F)F)n(C)c2=O)c1NC(=O)C=Cc1ccccc1F [2-125]
[1]; 63 g ai/ha, scale 0-100
  phytotoxicity rating AMARE: 100
[1]; 250 g ai/ha, scale 0-100
  phytotoxicity rating AMARE: 100
[2]; 63 g ai/ha, scale 0-100
  phytotoxicity rating ECHCG: 10
[2]; 250 g ai/ha, scale 0-100
  phytotoxicity rating ECHCG: 50
[3]; 63 g ai/ha, scale 0-100
  phytotoxicity rating SETVI: 50
[3]; 250 g ai/ha, scale 0-100
  phytotoxicity rating SETVI: 90
[4]; 63 g ai/ha, scale 0-100
  phytotoxicity rating IPOHE: 0
[4]; 250 g ai/ha, scale 0-100
  phytotoxicity rating IPOHE: 100
[5]; 63 g ai/ha, scale 0-100
  phytotoxicity rating SORHA: 20
[5]; 250 g ai/ha, scale 0-100
  phytotoxicity rating SORHA: 50
[6]; 63 g ai/ha, scale 0-100
  phytotoxicity rating CHEAL: 100
[6]; 250 g ai/ha, scale 0-100
  phytotoxicity rating CHEAL: 100
[7]; 63 g ai/ha, scale 0-100
  phytotoxicity rating DIGSA: 30
[7]; 250 g ai/ha, scale 0-100
  phytotoxicity rating DIGSA: 90
[8]; 63 g ai/ha, scale 0-100
  phytotoxicity rating CASOB: 30
[8]; 250 g ai/ha, scale 0-100
  phytotoxicity rating CASOB: 70
[9]; 63 g ai/ha, scale 0-100
  phytotoxicity rating ABUTH: 100
[9]; 250 g ai/ha, scale 0-100
  phytotoxicity rating ABUTH: 100
[10]; 63 g ai/ha
  phytotoxicity rating CORN (crop damage): 0
[10]; 250 g ai/ha
  phytotoxicity rating CORN (crop damage): 10
[11]; 63 g ai/ha
  phytotoxicity rating RICE (crop damage): 0
[11]; 250 g ai/ha
  phytotoxicity rating RICE (crop damage): 45
[12]; 63 g ai/ha
  ECHCG phytotoxicity rating: 20
[12]; 250 g ai/ha
  ECHCG phytotoxicity rating: 40
[13]; 63 g ai/ha
  SETVI phytotoxicity rating: 40
[13]; 250 g ai/ha
  SETVI phytotoxicity rating: 60
[14]; 63 g ai/ha
  IPOHE phytotoxicity rating: 100
[14]; 250 g ai/ha
  IPOHE phytotoxicity rating: 100
[15]; 63 g ai/ha
  SORHA phytotoxicity rating: 30
[15]; 250 g ai/ha
  SORHA phytotoxicity rating: 40
[16]; 63 g ai/ha
  CHEAL phytotoxicity rating: 100
[16]; 250 g ai/ha
  CHEAL phytotoxicity rating: 100
[17]; 63 g ai/ha
  DIGSA phytotoxicity rating: 20
[17]; 250 g ai/ha
  DIGSA phytotoxicity rating: 40
[18]; 63 g ai/ha, rating scale 0-100
  AMARE phytotoxicity rating: 100
[18]; [23]
  AMARE phytotoxicity rating: 100
[19]; 63 g ai/ha
  CASOB phytotoxicity rating: 90
[19]; 250 g ai/ha
  CASOB phytotoxicity rating: 100
[20]; 63 g ai/ha
  ABUTH phytotoxicity rating: 100
[20]; 250 g ai/ha
  ABUTH phytotoxicity rating: 100
[21]; 63 g ai/ha
  CORN phytotoxicity rating (crop damage): 10
[21]; 250 g ai/ha
  CORN phytotoxicity rating (crop damage): 20
[22]; 63 g ai/ha
  RICE phytotoxicity rating (crop damage): 40
[22]; 250 g ai/ha
  RICE phytotoxicity rating (crop damage): 70

## COc1c(Cl)cc(F)c(-n2c(=O)cc(C(F)(F)F)n(C)c2=O)c1NN=C(C(F)(F)F)C(F)(F)F [15-21]
[1]; 63 g ai/ha, rating scale 0-100
  phytotoxicity rating AMARE: 100
[1]; [23]
  phytotoxicity rating AMARE: 100
[2]; 63 g ai/ha, rating scale 0-100
  phytotoxicity rating ECHCG: 99
[2]; [23]
  phytotoxicity rating ECHCG: 100
[3]; 63 g ai/ha, rating scale 0-100
  phytotoxicity rating SETVI: 100
[3]; [23]
  phytotoxicity rating SETVI: 100
[4]; 63 g ai/ha, rating scale 0-100
  phytotoxicity rating IPOHE: 100
[4]; [23]
  phytotoxicity rating IPOHE: 100
[5]; 63 g ai/ha, rating scale 0-100
  phytotoxicity rating SORHA: 100
[5]; [23]
  phytotoxicity rating SORHA: 100
[6]; 63 g ai/ha, rating scale 0-100
  phytotoxicity rating CHEAL: 100
[6]; [23]
  phytotoxicity rating CHEAL: 100
[7]; 63 g ai/ha, rating scale 0-100
  phytotoxicity rating DIGSA: 100
[7]; [23]
  phytotoxicity rating DIGSA: 100
[8]; 63 g ai/ha, rating scale 0-100
  phytotoxicity rating CASOB: 100
[8]; [23]
  phytotoxicity rating CASOB: 100
[9]; 63 g ai/ha, rating scale 0-100
  phytotoxicity rating ABUTH: 100
[9]; [23]
  phytotoxicity rating ABUTH: 100
[10]; 63 g ai/ha
  phytotoxicity rating CORN: 95
[10]; 250 g ai/ha
  phytotoxicity rating CORN: 100
[11]; 63 g ai/ha
  phytotoxicity rating RICE: 99
[11]; 250 g ai/ha
  phytotoxicity rating RICE: 100
[12]; 63 g ai/ha
  Post-emerge Herbicidal Activity ECHCG (phytotoxicity rating): 60
[12]; 250 g ai/ha
  Post-emerge Herbicidal Activity ECHCG (phytotoxicity rating): 100
[13]; 63 g ai/ha
  Post-emerge Herbicidal Activity SETVI (phytotoxicity rating): 50
[13]; 250 g ai/ha
  Post-emerge Herbicidal Activity SETVI (phytotoxicity rating): 90
[14]; 63 g ai/ha
  Post-emerge Herbicidal Activity IPOHE (phytotoxicity rating): 100
[14]; 250 g ai/ha
  Post-emerge Herbicidal Activity IPOHE (phytotoxicity rating): 100
[15]; 63 g ai/ha
  Post-emerge Herbicidal Activity SORHA (phytotoxicity rating): 40
[15]; 250 g ai/ha
  Post-emerge Herbicidal Activity SORHA (phytotoxicity rating): 95
[16]; 63 g ai/ha
  Post-emerge Herbicidal Activity CHEAL (phytotoxicity rating): 100
[16]; 250 g ai/ha
  Post-emerge Herbicidal Activity CHEAL (phytotoxicity rating): 100
[17]; 63 g ai/ha
  Post-emerge Herbicidal Activity DIGSA (phytotoxicity rating): 30
[17]; 250 g ai/ha
  Post-emerge Herbicidal Activity DIGSA (phytotoxicity rating): 95
[18]; 63 g ai/ha, rating scale 0-100 (0 no damage, 100 complete death)
  Post-emerge Herbicidal Activity AMARE (phytotoxicity rating): 95
[18]; [23]
  Post-emerge Herbicidal Activity AMARE (phytotoxicity rating): 100
[19]; 63 g ai/ha
  Post-emerge Herbicidal Activity CASOB (phytotoxicity rating): 100
[19]; 250 g ai/ha
  Post-emerge Herbicidal Activity CASOB (phytotoxicity rating): 100
[20]; 63 g ai/ha
  Post-emerge Herbicidal Activity ABUTH (phytotoxicity rating): 100
[20]; 250 g ai/ha
  Post-emerge Herbicidal Activity ABUTH (phytotoxicity rating): 100
[21]; 63 g ai/ha
  Post-emerge Herbicidal Activity CORN (crop damage rating): 30
[21]; 250 g ai/ha
  Post-emerge Herbicidal Activity CORN (crop damage rating): 90
[22]; 63 g ai/ha
  Post-emerge Herbicidal Activity RICE (crop damage rating): 80
[22]; 250 g ai/ha
  Post-emerge Herbicidal Activity RICE (crop damage rating): 90

— US6355799B1, “Substituted benzene compounds, process for their preparation, and herbicidal and defoliant compositions containing them” (ISK Americas Incorporated, priority 1997, dated 2002)
